What was measured:
[1] = tested on: SF-268; experiment: cells; conditions: Homo sapiens, SF-268, 48 h; for CC50: read-out: LC50
[2] = tested on: COLO 205; experiment: cells; conditions: Homo sapiens, COLO 205, 48 h; for CC50: read-out: LC50
[3] = tested on: SW-620; experiment: cells; conditions: Homo sapiens, SW-620, 48 h; for CC50: read-out: LC50
[4] = tested on: NCI-H226; experiment: cells; conditions: Homo sapiens, NCI-H226, 48 h; for CC50: read-out: LC50
[5] = tested on: HOP-62; experiment: cells; conditions: Homo sapiens, HOP-62, 48 h; for CC50: read-out: LC50
[6] = tested on: CCRF-CEM; experiment: cells; conditions: Homo sapiens, 48 h; for CC50: read-out: LC50
[7] = tested on: M14; experiment: cells; conditions: Homo sapiens, M14, 48 h; for CC50: read-out: LC50
[8] = tested on: RPMI-8226; experiment: cells; conditions: Homo sapiens, RPMI-8226, 48 h; for CC50: read-out: LC50
[9] = tested on: 786-0; experiment: cells; conditions: Homo sapiens, 786-0, 48 h; for CC50: read-out: LC50
[10] = tested on: MALME-3M; experiment: cells; conditions: Homo sapiens, 48 h; for CC50: read-out: LC50
[11] = tested on: SN12C; experiment: cells; conditions: Homo sapiens, 48 h; for CC50: read-out: LC50
[12] = tested on: SK-MEL-2; experiment: cells; conditions: Homo sapiens, SK-MEL-2, 48 h; for CC50: read-out: LC50
[13] = tested on: OVCAR-4; experiment: cells; conditions: Homo sapiens, OVCAR-4, 48 h; for CC50: read-out: LC50
[14] = tested on: HCT-116; experiment: cells; conditions: Homo sapiens, HCT-116, 48 h; for CC50: read-out: LC50
[15] = tested on: NCI-H23; experiment: cells; conditions: Homo sapiens, NCI-H23, 48 h; for CC50: read-out: LC50
[16] = tested on: SF-295; experiment: cells; conditions: Homo sapiens, SF-295, 48 h; for CC50: read-out: LC50
[17] = tested on: HL-60(TB); experiment: cells; conditions: Homo sapiens, HL-60, 48 h; for CC50: read-out: LC50
[18] = tested on: SK-MEL-5; experiment: cells; conditions: Homo sapiens, SK-MEL-5, 48 h; for CC50: read-out: LC50
[19] = tested on: KM12; experiment: cells; conditions: Homo sapiens, KM12, 48 h; for CC50: read-out: LC50
[20] = tested on: OVCAR-8; experiment: cells; conditions: Homo sapiens, OVCAR-8, 48 h; for CC50: read-out: LC50
[21] = tested on: UACC-257; experiment: cells; conditions: Homo sapiens, UACC-257, 48 h; for CC50: read-out: LC50
[22] = tested on: NCI-H460; experiment: cells; conditions: Homo sapiens, NCI-H460, 48 h; for CC50: read-out: LC50
[23] = tested on: BT-549; experiment: cells; conditions: Homo sapiens, BT-549, 48 h; for CC50: read-out: LC50
[24] = tested on: SK-MEL-28; experiment: cells; conditions: Homo sapiens, SK-MEL-28, 48 h; for CC50: read-out: LC50
[25] = tested on: A549/ATCC; experiment: cells; conditions: Homo sapiens, A549, 48 h; for CC50: read-out: LC50
[26] = tested on: HCT-15; experiment: cells; conditions: Homo sapiens, HCT-15, 48 h; for CC50: read-out: LC50
[27] = tested on: 60 cancer cell lines; experiment: NCI-60 one-dose screen (10 μM); format: cell-based; conditions: Homo sapiens; one dose of 10 μM, mean over 60 cancer cell lines; read-out: Mean Growth Percent (MGP)
Description: Additionally, the mean of the growth percentages (MGP) of each compound against all the 60 cancer cell lines is also reported, which is used as one of the selection criteria to continue with tests at five concentration doses.

[28] = tested on: NCI-H322M; experiment: cells; conditions: Homo sapiens, 48 h; for CC50: read-out: LC50
[29] = tested on: SNB-19; experiment: cells; conditions: Homo sapiens, SNB-19, 48 h; for CC50: read-out: LC50
[30] = tested on: IGROV1; experiment: cells; conditions: Homo sapiens, IGROV-1, 48 h; for CC50: read-out: LC50
[31] = tested on: UO-31; experiment: cells; conditions: Homo sapiens, UO-31, 48 h; for CC50: read-out: LC50
[32] = tested on: MDA-MB-435; experiment: cells; conditions: Homo sapiens, MDA-MB-435, 48 h; for CC50: read-out: LC50
[33] = tested on: EKVX; experiment: cells; conditions: Homo sapiens, 48 h; for CC50: read-out: LC50
[34] = tested on: OVCAR-5; experiment: cells; conditions: Homo sapiens, OVCAR-5, 48 h; for CC50: read-out: LC50
[35] = tested on: U251; experiment: cells; conditions: Homo sapiens, U-251, 48 h; for GI50: U251, 48 h; for CC50: read-out: LC50
[36] = tested on: ACHN; experiment: cells; conditions: Homo sapiens, 48 h; for CC50: read-out: LC50

`CN(C)c1nc(NCCNS(=O)(=O)c2ccc(C3=Nc4c(N)nc(N)nc4NC(c4ccc(C(F)(F)F)cc4)C3)cc2)nc(N2CCOCC2)n1` (stereo not shown) [30g] gave a GI50 [1] of 19.9 µM, a CC50 [1] greater than 100 µM and a GI50 [2] of 16.5 µM. It also gave a CC50 [2] of 76.2 µM, a GI50 [3] of 46.9 µM and a CC50 [3] greater than 100 µM. The GI50 [4] was 17.6 µM, the CC50 [4] was greater than 100 µM and the GI50 [5] was 50.7 µM. The CC50 [5] was greater than 100 µM, the GI50 [6] was 25.9 µM and the CC50 [6] was greater than 100 µM. The GI50 [7] was 22 µM, the CC50 [7] was greater than 100 µM and the GI50 [8] was 11.2 µM. The CC50 [8] was greater than 100 µM, the GI50 [9] was 20.8 µM and the CC50 [9] was greater than 100 µM. For the same compound, the GI50 [10] was 19.9 µM, the CC50 [10] was greater than 100 µM and the GI50 [11] was 35.7 µM. For the same compound, the CC50 [11] was greater than 100 µM, the GI50 [12] was 15.8 µM and the CC50 [12] was 57.8 µM. The GI50 [13] was 37 µM, the CC50 [13] was greater than 100 µM and the GI50 [14] was 41.9 µM. For the same compound, the CC50 [14] was greater than 100 µM, the GI50 [15] was 37.6 µM and the CC50 [15] was greater than 100 µM. For the same compound, the GI50 [16] was 21.1 µM, the CC50 [16] was greater than 100 µM and the GI50 [17] was 27.5 µM. It also gave a CC50 [17] greater than 100 µM, a GI50 [18] of 15.9 µM and a CC50 [18] of 57.1 µM. For the same compound, the GI50 [19] was 37 µM, the CC50 [19] was greater than 100 µM and the GI50 [20] was 59.5 µM. It also gave a CC50 [20] greater than 100 µM, a GI50 [21] of 20.4 µM and a CC50 [21] greater than 100 µM. It also gave a GI50 [22] of 36.5 µM, a CC50 [22] greater than 100 µM and a GI50 [23] of 13.8 µM. The CC50 [23] was 73.1 µM, the GI50 [24] was 34.1 µM and the CC50 [24] was greater than 100 µM. For the same compound, the GI50 [25] was 51.3 µM, the CC50 [25] was greater than 100 µM and the GI50 [26] was 30.9 µM. For the same compound, the CC50 [26] was greater than 100 µM, the activity at 10 µM [27] was 38.8% and the GI50 [28] was 45.4 µM. The CC50 [28] was greater than 100 µM, the GI50 [29] was 30 µM and the CC50 [29] was greater than 100 µM. It also gave a GI50 [30] of 27 µM, a CC50 [30] greater than 100 µM and a GI50 [31] of 100 µM. The CC50 [31] was greater than 100 µM, the GI50 [32] was 34.2 µM and the CC50 [32] was greater than 100 µM. It also gave a GI50 [33] of 47.2 µM, a CC50 [33] greater than 100 µM and a GI50 [34] of 27 µM. The CC50 [34] was greater than 100 µM, the GI50 [35] was 24.2 µM and the CC50 [35] was greater than 100 µM. For the same compound, the GI50 [36] was 64.4 µM and the CC50 [36] was greater than 100 µM.
In the case of `CN(C)c1nc(NCCNS(=O)(=O)c2ccc(C(=O)/C=C/c3ccc(Cl)cc3)cc2)nc(N2CCOCC2)n1` [23e], the GI50 [1] is reported as 17.7 µM, the CC50 [1] is reported as greater than 100 µM and the GI50 [2] is reported as 16.7 µM. For the same compound, the CC50 [2] was 70.8 µM, the GI50 [3] was 8.46 µM and the CC50 [3] was 50.2 µM. The GI50 [4] was 15.7 µM, the CC50 [4] was 73.8 µM and the GI50 [5] was 17.5 µM. For the same compound, the CC50 [5] was 65.8 µM, the GI50 [6] was 6.86 µM and the CC50 [6] was greater than 100 µM. The GI50 [7] was 14.1 µM, the CC50 [7] was 56.9 µM and the GI50 [8] was 2.55 µM. It also gave a CC50 [8] greater than 100 µM, a GI50 [9] of 14.8 µM and a CC50 [9] of 55.9 µM. The GI50 [10] was 15.1 µM, the CC50 [10] was 54.2 µM and the GI50 [11] was 14.4 µM. It also gave a CC50 [11] of 53.8 µM, a GI50 [12] of 16.5 µM and a CC50 [12] of 56 µM. The GI50 [13] was 14.7 µM, the CC50 [13] was 57.2 µM and the GI50 [14] was 11.7 µM. It also gave a CC50 [14] of 50.7 µM, a GI50 [15] of 15.7 µM and a CC50 [15] of 55.6 µM. For the same compound, the GI50 [16] was 13.3 µM, the CC50 [16] was 52.8 µM and the GI50 [17] was 14.7 µM. The CC50 [17] was greater than 100 µM, the GI50 [18] was 16.3 µM and the CC50 [18] was 55.6 µM. It also gave a GI50 [19] of 16.9 µM, a CC50 [19] greater than 100 µM and a GI50 [20] of 14.8 µM. For the same compound, the CC50 [20] was 54.5 µM, the GI50 [21] was 16.2 µM and the CC50 [21] was 55.7 µM. The GI50 [22] was 16.8 µM, the CC50 [22] was 67.1 µM and the GI50 [23] was 15.3 µM. The CC50 [23] was 56 µM, the GI50 [24] was 15.5 µM and the CC50 [24] was 53.9 µM. The GI50 [25] was 14.4 µM, the CC50 [25] was 56.4 µM and the GI50 [26] was 2.07 µM. It also gave a CC50 [26] of 9.93 µM, an activity at 10 µM [27] of 6.74% and a GI50 [28] of 14.4 µM. For the same compound, the CC50 [28] was 52.4 µM, the GI50 [29] was 14.2 µM and the CC50 [29] was 52.1 µM. It also gave a GI50 [30] of 3.08 µM, a CC50 [30] of 36.8 µM and a GI50 [31] of 11.4 µM. For the same compound, the CC50 [31] was 48.4 µM, the GI50 [32] was 12.8 µM and the CC50 [32] was 55.3 µM. For the same compound, the GI50 [33] was 14.8 µM, the CC50 [33] was 55.7 µM and the GI50 [34] was 15 µM. The CC50 [34] was 53.9 µM, the GI50 [35] was 8.16 µM and the CC50 [35] was 45.9 µM. The GI50 [36] was 13.5 µM and the CC50 [36] was 51.3 µM.

Source: paper PMC11012124, “Synthesis of Novel Triazine-Based Chalcones and 8,9-dihydro-7H-pyrimido[4,5-b][1,4]diazepines as Potential Leads in the Search of Anticancer, Antibacterial and Antifungal Agents” (International Journal of Molecular Sciences, 2024)
